Patent US7041461B2 (H. Lundbeck A/S, priority 1998, dated 2006)
“Also recorded” adds a separate entry of the source. Like-named read-outs stand apart in the source and are kept apart here. Non-standard residues stand in square brackets, D forms with d. Residues, ends and D or L forms follow the SMILES beside them. No end group written: not given here. NMeF = CN[C@@H](Cc1ccccc1)C(=O)O

Experiments:
SNORF2 (NPFF1) = molecular target: T1, SNORF2 (NPFF1) (Rattus norvegicus, UniProt Q9EP86); assay: Voltage-clamp electrophysiology in Xenopus oocytes expressing SNORF2 (NPFF1) and chimeric Gαq/z; format: cell-based; details: for activation of oocytes injected with SNORF2 synthetic RNA: unrelated neuropeptides and neurotransmitters, concentration not given; for inward current response: 1 μM, holding potential −80 mV
T1 construct: from linearized plasmids or PCR products containing the complete coding region of the genes; expressed in transfected cells; host or cells: Xenopus laevis oocytes injected with synthetic RNA
T1 sequence (Q9EP86 whole entry): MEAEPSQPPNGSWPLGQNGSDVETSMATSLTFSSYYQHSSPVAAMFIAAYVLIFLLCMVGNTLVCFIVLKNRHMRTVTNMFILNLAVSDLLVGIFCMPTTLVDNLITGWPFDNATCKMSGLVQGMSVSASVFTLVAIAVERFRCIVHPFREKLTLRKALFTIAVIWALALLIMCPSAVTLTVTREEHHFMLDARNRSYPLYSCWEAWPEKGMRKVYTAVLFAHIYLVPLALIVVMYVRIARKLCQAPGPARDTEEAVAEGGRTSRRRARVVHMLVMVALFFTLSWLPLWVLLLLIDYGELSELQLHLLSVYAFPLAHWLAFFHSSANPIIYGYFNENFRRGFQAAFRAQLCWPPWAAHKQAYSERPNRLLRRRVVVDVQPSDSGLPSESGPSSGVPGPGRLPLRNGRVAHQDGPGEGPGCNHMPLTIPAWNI
Description: (§1) Oocytes were harvested from Xenopus laevis and injected with mRNA transcripts as previously described (Quick and Lester, 1994; Smith et al., 1997). […] Three to eight hours prior to recording, oocytes were injected with 500 pg Gαq/z mRNA in order to observe coupling to Ca^++ activated Cl^− currents. Dual electrode voltage clamp (Axon Instruments Inc.) was performed using 3 M KCl-filled glass microelectrodes having resistances of 1–2 Mohm. Unless otherwise specified, oocytes were voltage clamped at a holding potential of −80 mV. During recordings, oocytes were bathed in continuously flowing (1–3 ml/min) medium containing 96 mM NaCl, 2 mM KCl, 1.8 mM CaCl2, 1 mM MgCl2, and 5 mM HEPES, pH 7.5 (ND96). Drugs were applied either by local perfusion from a […] glass capillary tube fixed at a distance of 0.5 mm from the oocyte, or by switching from a series of gravity fed perfusion lines.
Heterologous expression of GPCRs in Xenopus oocytes has been widely used to determine the identity of signaling pathways activated by agonist stimulation (Gundersen et al., 1983; Takahashi et al., 1987). Activation of the phospholipase C (PLC) pathway is assayed by applying test compound in ND96 solution to oocytes previously injected with mRNA for the mammalian receptor and observing inward currents at a holding potential of −80 mV. The appearance of currents that reverse at −25 mV and display other properties of the Ca^++-activated Cl^− (chloride) channel is indicative of mammalian receptor-activation of PLC and release of IP3 and intracellular Ca^++.
Control oocytes receiving only G-protein synthetic RNA were unresponsive to these peptides. […] Similarly, SNORF2-like was renamed NPFF-like.

[1] = molecular target: T2, cloned rat NPFF1 receptor (Rattus norvegicus, UniProt Q9EP86); assay: Radioligand binding to cloned rat NPFF1 receptor, membranes of transiently transfected COS-7 cells
T2 construct: expressed in transfected cells; host or cells: COS-7 cells, transient; membranes
T2 sequence (Q9EP86 whole entry): as above
Description: Transfected cells from culture flasks are scraped into 5 ml of 20 mM Tris-HCl, 5 mM EDTA, pH 7.5, and lysed by sonication. The cell lysates are centrifuged at 1000 rpm for 5 min. at 4° C., and the supernatant is centrifuged at 30,000× g for 20 min. at 4° C. […] Optimal membrane suspension dilutions, defined as the protein concentration required to bind less than 10% of the added radioligand, […], unlabeled compounds, and binding buffer to a final volume of 250 μl. In equilibrium saturation binding assays membrane preparations are incubated in the presence of increasing concentrations of [^3H]-labeled compound.
(§2) Competition assay: 50 pM radioligand, 10–12 points. Binding reaction mixtures are incubated for 2 hr at 25° C., and the reaction stopped by filtration through a double layer of GF filters treated with 0.1% polyethyleneimine, using a cell harvester. Wash buffer: 50 mM Tris-HCl, 0.1% BSA. Radioactivity may be measured by scintillation counting and data are analyzed by a computerized non-linear regression program. Non-specific binding is defined as the amount of radioactivity remaining after incubation of membrane protein in the presence of 1 μM final concentration […]. Protein concentration may be measured by the Bradford method using Bio-Rad Reagent, with bovine serum albumin as a standard.
Cos-7 cells transiently expressing the gene encoding the novel rat NPFF1 receptor were used for pharmacological evaluation. […]

[2] = molecular target: rat spinal cord membrane receptor; assay: Radioligand binding to rat spinal cord membranes; details: * marks difference from NPFF1
Description: Transfected cells from culture flasks are scraped into 5 ml of 20 mM Tris-HCl, 5 mM EDTA, pH 7.5, and lysed by sonication. The cell lysates are centrifuged at 1000 rpm for 5 min. at 4° C., and the supernatant is centrifuged at 30,000× g for 20 min. at 4° C. […] Optimal membrane suspension dilutions, defined as the protein concentration required to bind less than 10% of the added radioligand, are added to 96-well polpropylene microtiter plates containing ^3H-labeled compound, unlabeled compounds, and binding buffer to a final volume of 250 μl. In equilibrium saturation binding assays membrane preparations are incubated in the presence of increasing concentrations of [^3H]-labeled compound.
as §2
The binding profile of rat NPFF1 was compared to that of rat spinal cord membranes. […] (See * Table 2).

NPFF-1 receptor = molecular target: T3, NPFF-1 receptor (Rattus norvegicus, UniProt Q9EP86); assay: Total inositol phosphate release in transiently transfected Cos-7 cells; format: cell-based
T3 construct: expressed in transfected cells; host or cells: Cos-7 cells, transient, intact cells
T3 sequence (Q9EP86 whole entry): as above

NPFF receptors = details: at a concentration of 10 μM; spinal cord membranes; cited from earlier work
NPFF2 (hNPFF2) = molecular target: T4, NPFF2 (hNPFF2) (Homo sapiens, UniProt Q9Y5X5); assay: Voltage-clamp electrophysiology in Xenopus oocytes expressing NPFF2 (NPFF-like) and chimeric Gαq/z; format: cell-based; details: 1 μM; oocytes with NPFF2 (NPFF-like) mRNA and Gαq/z; −80 mV
T4 construct: BO89, was determined to be a full length clone with no point mutations; expressed in transfected cells; host or cells: Xenopus laevis oocytes injected with synthetic mRNA
T4 sequence (Q9Y5X5 103-522): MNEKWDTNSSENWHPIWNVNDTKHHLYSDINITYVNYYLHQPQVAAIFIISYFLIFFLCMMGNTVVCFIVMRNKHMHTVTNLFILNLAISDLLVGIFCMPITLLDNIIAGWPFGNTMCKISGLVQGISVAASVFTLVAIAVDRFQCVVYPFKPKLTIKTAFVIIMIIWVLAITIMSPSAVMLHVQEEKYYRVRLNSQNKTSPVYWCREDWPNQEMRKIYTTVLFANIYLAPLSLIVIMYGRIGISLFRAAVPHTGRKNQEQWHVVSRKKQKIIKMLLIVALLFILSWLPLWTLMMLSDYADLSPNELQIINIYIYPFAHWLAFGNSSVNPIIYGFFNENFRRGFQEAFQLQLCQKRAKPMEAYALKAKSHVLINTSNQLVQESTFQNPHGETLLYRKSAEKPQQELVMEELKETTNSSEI
Description: Electrophysiological responses in voltage-clamped oocytes expressing NPFF2 mRNA. […] Oocytes were clamped at a holding potential of −80 mV.
For expression of NPFF2, mRNA transcripts were generated as described for NPFF1, using PCR products from ligation reactions or linearized DNA from B089 as DNA templates. Oocytes were injected with 5–50 ng NPFF2 mRNA and incubated as previously described.
as §1

[3] = competition of [125I]D-Tyr-NPFF binding, transiently transfected COS-7 membranes, read-out: pKi for cloned rat NPFF1 receptor binding in COS-7 cells, MEAN (converted)
[4] = competition of [125I]D-Tyr-NPFF binding, transiently transfected COS-7 membranes

## NCCc1c[nH]c2ccc(O)cc12 [5-HT]
SNORF2 (NPFF1)
  activation of oocytes injected with SNORF2 synthetic RNA: failed to activate

## CC(C)C[C@@H](NC(=O)[C@H](N)Cc1ccc(O)cc1)C(=O)N[C@H](Cc1ccccc1)C(=O)N[C@@H](CCC(N)=O)C(=O)N1CCC[C@H]1C(=O)N[C@@H](CCC(N)=O)C(=O)N[C@@H](CCCNC(=N)N)C(=O)N[C@@H](Cc1ccccc1)C(N)=O [(3D)Y8Fa] (H-[dY][dL][dF]QPQRF-NH2; N-terminus assumed)
[1]; [3]
  Ki: 2.38 nM

## CC(C)C[C@H](NC(=O)[C@H](N)Cc1ccc(O)cc1)C(=O)N(C)[C@@H](Cc1ccccc1)C(=O)N[C@@H](CCC(N)=O)C(=O)N1CCC[C@H]1C(=O)N[C@@H](CCC(N)=O)C(=O)N[C@@H](CCCN=C(N)N)C(=O)N[C@@H](Cc1ccccc1)C(N)=O [(D-Tyr^1-(NMe)Phe^3)NPFF] (H-[dY]L[NMeF]QPQRF-NH2)
[1]; [3]
  Ki: 2.82 nM

## CSCC[C@H](NC(=O)[C@H](Cc1ccc(OS(=O)(=O)O)cc1)NC(=O)[C@@H](N)CC(=O)O)C(=O)NCC(=O)N[C@@H](Cc1c[nH]c2ccccc12)C(=O)N[C@@H](CCSC)C(=O)N[C@@H](CC(=O)O)C(=O)N[C@@H](Cc1ccccc1)C(N)=O [CCK8]
[2]
  pKi for rat spinal cord membrane receptor binding, MEAN: 5.000

## N=C(N)NCCC[C@@H](N)C(=O)O [D-arginine]
[2]
  pKi for rat spinal cord membrane receptor binding, MEAN: 5.000
[1]; [4]
  pKi for cloned rat NPFF1 receptor binding in COS-7 cells, MEAN: 5.000

## N=C(N)NCCC[C@H](N)C(=O)O [L-arginine]
[2]
  pKi for rat spinal cord membrane receptor binding, MEAN: 5.000
[1]; [4]
  pKi for cloned rat NPFF1 receptor binding in COS-7 cells, MEAN: 5.000

## CC(C)C[C@H](NC(=O)[C@@H](N)Cc1ccccc1)C(=O)N[C@@H](Cc1ccccc1)C(=O)N[C@@H](CCC(N)=O)C(=O)N1CCC[C@H]1C(=O)N[C@@H](CCC(N)=O)C(=O)N[C@@H](CCCNC(=N)N)C(=O)N[C@@H](Cc1ccccc1)C(N)=O [NPFF(F-8-Fa)]
SNORF2 (NPFF1); oocytes with SNORF2 and Gαq/z
  inward current response: robust inward currents
  threshold for activation of inward current: 30 nM
NPFF-1 receptor; Cos-7 cells transfected with NPFF1 alone
  Emax, total IP release: approximately 200 % basal
NPFF-1 receptor; Cos-7 cells transfected with NPFF1 receptor and Gq/Gz chimera
  Emax, total IP release: approximately 1500 % basal

## CSCC[C@H](NC(=O)[C@@H]1CCCN1)C(=O)N[C@@H](CCCNC(=N)N)C(=O)N[C@@H](Cc1ccccc1)C(N)=O [PMRFa] (H-PMRF-NH2; N-terminus assumed)
[1]; [3]
  Ki: 2.82 nM

## CNCCCN1c2ccccc2CCc2ccccc21 [desipramine]
[2]
  pKi for rat spinal cord membrane receptor binding, MEAN: 5.000
[1]; [4]
  pKi for cloned rat NPFF1 receptor binding in COS-7 cells, MEAN: 5.000

## NCCc1ccc(O)c(O)c1 [dopamine]
[2]
  pKi for rat spinal cord membrane receptor binding, MEAN: 5.000
[1]; [4]
  pKi for cloned rat NPFF1 receptor binding in COS-7 cells, MEAN: 5.000

## CCNC(C)Cc1cccc(C(F)(F)F)c1 (centres unmarked) [fenfluramine]
[2]
  pKi for rat spinal cord membrane receptor binding, MEAN: 5.000
[1]; [4]
  pKi for cloned rat NPFF1 receptor binding in COS-7 cells, MEAN: 5.000

## COc1ccc2c(c1)[nH]c1c(C)nccc12 [harmine]
[2]
  pKi for rat spinal cord membrane receptor binding, MEAN: 5.000
[1]; [4]
  pKi for cloned rat NPFF1 receptor binding in COS-7 cells, MEAN: 5.000

## C[C@@H]1CN([C@H]2CC[C@](C#N)(c3ccc(F)cc3)CC2)CC[C@]1(C(=O)O)c1ccccc1 [levocabastine]
[2]
  pKi for rat spinal cord membrane receptor binding, MEAN: 5.000
[1]; [4]
  pKi for cloned rat NPFF1 receptor binding in COS-7 cells, MEAN: 5.000

## CN1CC[C@]23c4c5ccc(O)c4O[C@H]2[C@@H](O)C=C[C@H]3[C@H]1C5 [morphine]
NPFF receptors
  inhibition of [125I](1DMe)Y8Fa binding: No inhibition

## CC(C)C[C@H](NC(=O)[C@H](CCCCN)NC(=O)[C@H](CCCN=C(N)N)NC(=O)[C@H](C)NC(=O)[C@H](CO)NC(=O)[C@H](CCCCN)NC(=O)[C@H](CCCN=C(N)N)NC(=O)[C@H](C)NC(=O)CNC(=O)[C@@H](NC(=O)[C@H](Cc1ccccc1)NC(=O)CNC(=O)CNC(=O)[C@@H](N)Cc1ccccc1)[C@@H](C)O)C(=O)N[C@@H](C)C(=O)N[C@@H](CC(N)=O)C(=O)N[C@@H](CCC(N)=O)C(=O)O [nociceptin]
SNORF2 (NPFF1)
  activation of oocytes injected with SNORF2 synthetic RNA: failed to activate
[2]
  pKi for rat spinal cord membrane receptor binding, MEAN: 5.000
[1]; [4]
  pKi for cloned rat NPFF1 receptor binding in COS-7 cells, MEAN: 5.000

## Cc1nc2sccn2c(=O)c1CCN1CCC(=C(c2ccc(F)cc2)c2ccc(F)cc2)CC1 [ritanserine]
[2]
  pKi for rat spinal cord membrane receptor binding, MEAN: 5.000
[1]; [4]
  pKi for cloned rat NPFF1 receptor binding in COS-7 cells, MEAN: 5.000

## AGEGLSSPYWSLAAPQRF-NH2 [[Y^9]A18Fa]
SNORF2 (NPFF1); oocytes with SNORF2 and Gαq/z
  inward current response: displayed activity
[1]; [3]
  Ki: 27.7 nM

## NPY: unrelated neuropeptide
NPFF2 (hNPFF2)
  inward current response: failed to activate responses; also recorded: no response is observed
NPFF receptors
  inhibition of [125I](1DMe)Y8Fa binding: No inhibition

## PDVDHVFLRF-NH2 [SchistFLRF]
[1]
  Ki: 1100 nM

## PYY: unrelated neuropeptide
SNORF2 (NPFF1)
  activation of oocytes injected with SNORF2 synthetic RNA: failed to activate

## TEPGLEEVGEIEQKQLQ [nocistatin]
[2]
  pKi for rat spinal cord membrane receptor binding, MEAN: 5.000

## YLFQPQRF-NH2 [Y8Fa] [listing 1 of 2 here]
[1]; [3]
  Ki: 4.15 nM

## YLFQPQRF-NH2 [Y8Fa] [listing 2 of 2 here]
SNORF2 (NPFF1); oocytes with SNORF2 and Gαq/z
  inward current response: displayed activity

## a-MSH
[2]
  pKi for rat spinal cord membrane receptor binding, MEAN: 5.000

## ibogaine
[2]
  pKi for rat spinal cord membrane receptor binding, MEAN: 5.000

## melanin concentrating hormone: unrelated neuropeptide
SNORF2 (NPFF1)
  activation of oocytes injected with SNORF2 synthetic RNA: failed to activate

## neurokinin A: unrelated neuropeptide
NPFF2 (hNPFF2)
  inward current response: failed to activate responses; also recorded: no response is observed

## orexin A: unrelated neuropeptide (QPLPDCCRQKTCSCRLYELLHGAGNHAAGILTL; ends and bridges not checked; cysteine pairing not given here; UniProt O43612 34-66, looked up)
NPFF2 (hNPFF2)
  inward current response: failed to activate responses; also recorded: no response is observed

## orexin B: unrelated neuropeptide
SNORF2 (NPFF1)
  activation of oocytes injected with SNORF2 synthetic RNA: failed to activate

## substance P
NPFF receptors
  inhibition of [125I](1DMe)Y8Fa binding: No inhibition
[2]
  pKi for rat spinal cord membrane receptor binding, MEAN: 5.000

B1: CCK: unrelated neuropeptide (peptide, UniProt P06307 21-115, looked up)
Cholecystokinin: QPVPPADPAGSGLQRAEEAPRRQLRVSQRTDGESRAHLGALLARYIQQARKAPSGRMSIVKNLQNLDPSHRISDRDYMGWMDFGRRSAEEYEYPS
modifications: Cholecystokinin
notes: unrelated neuropeptide
SNORF2 (NPFF1)
  activation of oocytes injected with SNORF2 synthetic RNA: failed to activate
